Reference: patent publication US3984547A, “Veterinary feedstuffs” (Bayer Aktiengesellschaft, priority 1971, dated 1976)
≈ marks a conversion by molar mass, not a printed value.

System: Proteus vulgaris species
Assay: MIC in vitro, plate test (agar), Table 1
Format: cell-based
Details: about 37° C, readings 24 and 48 h
Procedure: The minimum inhibitory concentrations in vitro for some of the new compounds shown in Table 1 (MIC) were determined by the plate test in an agar medium of the following composition: |proteose peptone 10.0 g per liter |5.1 × 10^3 germs were inoculated per plate. […]. Readings were taken after 24 and 48 hours, and the incubation temperature was about 37° C.

MIC: 150 µg/mL (≈ 515 µM)
SMILES: NC(=O)NN=Cc1c(C(=O)O)[n+]([O-])c2ccccc2[n+]1[O-] [Example 12]
